Results on two molecules are retold here after publication PMC11676204.

Where two headings read alike, the source gives them in different places.

One may read the IC50 as the midpoint of a concentration-inhibition curve. As a reminder, the inhibition is the share of the control response that was lost under treatment. As a reminder, the Cmax is the maximum level reached in the sampled fluid or tissue. A word on the MRT: it is the average time that molecules of a dose stay in the body.

Data set [1] relates to methyl predenisolone-induced hypertensive rats. Description: Antihypertensive activity, non-invasive tail-cuff method. The data set is classed as in vivo, rat. Also noted: Systolic BP / Diastolic BP: unit not given here. The settings on record: for Diastolic BP / Heart Rate / MABP / Systolic BP: methyl predenisolone 20 mg/kg/week rats, n = 4, mean ± S.E.M. As to the method:
After recording the initial BP of rats, the animals were divided into seven groups of four animals each. One group was chosen as the control group. The remaining groups were given a subcutaneous injection of methyl-predenisolone acetate (20 mg/kg/week) for one week, as described by Ekerbicer, N et al.. […] In total, 28 animals were evenly divided into 7 groups of 4 animals each to attain maximum balance of subjects across experimental conditions. […] Animals in group II (hypertensive control) were injected methylprednisolone acetate (20 mg/kg/week) intraperitoneally for hypertension induction, creating a baseline model of plateau hypertension. Animals in Group III were administered with 20 mg/kg/week intraperitoneal injection of methylprednisolone treated with captopril at an oral dosage of 5 mg/kg/day. For Group IV, the basal dosage of methylprednisolone was provided along with a higher dosage of captopril (10 mg/kg/day by oral route). […] The inclusion of multiple treatment groups with varying doses provided insights into the relative efficacy and dose-response relationship of the interventions. Randomization was done by block randomization, ensuring without bias these allocations of animals into groups. Before intervention, baseline characteristics such as weight, age, or sex of animals were determined, and t-test or ANOVA was used to affirm that no significant difference between groups existed. The SYRCLE’s Risk of Bias tool analyzed potential biases across various domains like selection, performance, and detection bias; each domain was rated according to low, high, or unclear risk.
The CODA Non-Invasive Blood Pressure Recorder (Kent Scientific Corporation, Torrington, CT, USA) was used to measure mean arterial blood pressure in conscious rats using the tail-cuff method. With the rat’s tail protruding, the restrainer was inserted in the BP instrument. […] The tail was gently pressed against a transducer membrane that was linked to the digital BP display panel. After that, the device was turned on and stabilized until a consistent pulse rate was seen. […] In this investigation, albino rats (body weight 150–200 g) were employed. Rats were divided into four groups, each with four individuals. […] After 1 h, the mean arterial blood pressure was measured.
Statistical analysis was carried out by one-way analysis of variance followed by Dunnet’s multiple comparison test using GraphPad InStat 3 (Graph Pad Software Inc., San Diego, CA, USA). All values were expressed as mean ± standard error of the mean (SEM). All groups were compared with hypertensive control animals. p-value of <0.01 was statistically significant.

The target in a further data set is ACE enzyme (Homo sapiens, UniProt P12821). As to the kind of experiment: ACE inhibition assay (absorbance at 340 nm).
Chain of ACE enzyme (P12821 30-1306, species assumed): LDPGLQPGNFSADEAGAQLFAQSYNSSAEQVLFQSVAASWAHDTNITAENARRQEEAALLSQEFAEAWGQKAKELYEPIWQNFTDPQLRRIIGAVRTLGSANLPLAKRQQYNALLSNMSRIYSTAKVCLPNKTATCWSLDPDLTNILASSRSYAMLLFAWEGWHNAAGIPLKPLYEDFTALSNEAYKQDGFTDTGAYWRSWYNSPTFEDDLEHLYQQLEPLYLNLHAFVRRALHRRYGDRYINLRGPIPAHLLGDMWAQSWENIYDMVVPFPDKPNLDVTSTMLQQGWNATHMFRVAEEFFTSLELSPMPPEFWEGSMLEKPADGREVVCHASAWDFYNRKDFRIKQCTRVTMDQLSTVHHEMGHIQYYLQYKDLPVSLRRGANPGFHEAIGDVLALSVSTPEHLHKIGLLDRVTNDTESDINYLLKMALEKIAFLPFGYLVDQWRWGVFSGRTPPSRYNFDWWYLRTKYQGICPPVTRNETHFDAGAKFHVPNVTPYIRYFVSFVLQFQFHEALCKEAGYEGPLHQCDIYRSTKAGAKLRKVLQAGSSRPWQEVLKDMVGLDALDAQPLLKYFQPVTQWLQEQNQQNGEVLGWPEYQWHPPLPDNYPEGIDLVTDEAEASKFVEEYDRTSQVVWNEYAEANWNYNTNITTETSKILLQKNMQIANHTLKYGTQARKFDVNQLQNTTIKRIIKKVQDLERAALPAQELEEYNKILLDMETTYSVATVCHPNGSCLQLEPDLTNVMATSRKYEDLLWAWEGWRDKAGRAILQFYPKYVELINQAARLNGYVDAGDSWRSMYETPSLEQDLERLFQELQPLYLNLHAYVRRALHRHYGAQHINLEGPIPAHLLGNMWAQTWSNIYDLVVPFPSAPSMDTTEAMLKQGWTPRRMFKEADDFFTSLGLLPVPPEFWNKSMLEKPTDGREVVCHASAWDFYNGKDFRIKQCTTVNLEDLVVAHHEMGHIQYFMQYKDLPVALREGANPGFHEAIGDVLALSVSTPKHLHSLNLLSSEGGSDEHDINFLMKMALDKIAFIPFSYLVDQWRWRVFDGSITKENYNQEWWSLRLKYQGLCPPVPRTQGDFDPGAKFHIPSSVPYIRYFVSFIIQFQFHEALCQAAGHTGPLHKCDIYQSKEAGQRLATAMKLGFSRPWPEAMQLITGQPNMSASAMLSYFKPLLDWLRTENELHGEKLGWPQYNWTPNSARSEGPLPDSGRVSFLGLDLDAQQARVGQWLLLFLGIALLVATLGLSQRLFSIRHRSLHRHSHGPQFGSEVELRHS
A short description of data set [2]: Pharmacokinetics after oral administration (plasma, UV spectrophotometry at 340 nm). The data set is classed as in vivo. The settings on record: rat; for Cmax / MRT / AUC(0-t): plasma; for AUC(0-t): read-out: AUC 0–7 (converted). How it is done:
In accordance with the ICH guidelines Q2 (R1) (2005) standard calibration curves, regression equations, and values for LOD and LOQ for each compound were validated with UV spectrophotometric method. Various parameters, such as linearity, precision, limit of detection, and limit of quantification, were considered for the method validation. […] The rats were orally administered (10, 20, and 40 mg/Kg body weight, n = 3) using a 20 G gavage needle. The animals were given a standard diet 4 h after the dosing, and blood samples were collected (approximately 400 μL) from each animal and placed into heparinized tubes before the dosing and at 0, 30, 60, 120, 180, 240, 300, 360, and 420 min after the dosing. Plasma (100 μL) was separated by centrifuging blood samples at 3600 rpm for 10 min at room temperature, followed by immediate processing for the analyses.
Plasma concentration by the compound was measured by UV spectrophotometry at 340 nm and validated per ICH requirements. […] The precision studies gave % RSD less than 2 for intra-day and inter-day variations, and recovery studies were between 97–99%, indicating the reliability of method.
The plasma concentration–time graph obtained after oral administrations were subjected to non-compartmental analyses based on the statistical moment theory, as shown in Figure 6 and Table 4. Pharmacokinetic parameters were calculated using WinNorlin 5.2 (Certara; available at www.certara.com, accessed on 20 November 2024). The parameters obtained include maximum plasma concentration (Cmax), the time to reach Cmax (Tmax), the elimination half-life (t1/2), the area under the plasma concentration–time curve from time zero to infinity (AUC0–∞), the area under the plasma concentration–time curve from time zero to 420 min AUC0–7, the mean residence time (MRT), and clearance (CL).

Experimental for ACE enzyme: The enzyme solution and substrate were prepared under standard protocols, and the assay was performed in 96-well plates wherein the ACE enzyme and inhibitor were mixed with the substrate. The reaction was incubated at 37 °C for 30 min, after which the ACE activity was determined by measuring the absorbance at 340 nm that correlated with the product formation and enzyme activity [36]. The IC₅₀ values that specify inhibition at 50% concentration were generated from concentration-inhibition data. The percentage inhibition was calculated using the formula:Percentage Inhibition (%) = (A − C)/ (A − B) ∗ 100 where A is the absorbance of the negative control (substrate and enzyme), B is the absorbance of the blank (buffer only) and C is the absorbance of the sample (enzyme, substrate and sample). For the positive control, captopril was used instead of a sample and was considered as C.

Regarding `COc1cc2oc(-c3ccc(O)cc3)c(OC3OC(CO)C(O)C(O)C3O)c(=O)c2c(O)c1OC` (stereo not shown), in data set [1] (10 mg/kg), the “Diastolic BP” value was 126.99 ± 6.80, the “Heart Rate” value amounted to 443.99 ± 15.12 Beats/min, the MABP was determined as 144.4 ± 4.59 mmHg and the “Systolic BP” value is on record as 179.19 ± 7.18. Further, in data set [1] (20 mg/kg oral), the “Diastolic BP” value was found to be 110.88 ± 10.28, the “Heart Rate” value turned out to be 430.66 ± 10.5 Beats/min, the MABP turned out to be 120.1 ± 5.1 mmHg and the “Systolic BP” value is listed as 138.44 ± 7.09. In addition, in data set [1] (40 mg/kg oral), the “Diastolic BP” value amounted to 85.76 ± 7.4, the “Heart Rate” value stood at 408.99 ± 9.0 Beats/min, the MABP is listed as 95.53 ± 7.5 mmHg and the “Systolic BP” value stood at 114.99 ± 5.8. Further, the “blood pressure in treated rats” value in data set [1] (10, 20 and 40 mg/kg) is recorded as “dose-dependent decrease in blood pressure”. For the same molecule, in data set [1] (methyl predenisolone-induced hypertensive rats, p < 0.01), the “systolic and diastolic blood pressures compared with vehicle” value is given as “significantly lower”. The same molecule returned an IC50 against ACE enzyme of around 20 µM. Moreover, on ACE enzyme (read-out: maximum ACE inhibition), the inhibition at 100 µM was around 82%. In data set [2] (10 mg/kg b.w. oral), the Cmax amounted to 100 µg/mL, the MRT is 3.05 h, the AUC(0-t) is 438 µg·h/mL and the “Elimination Rate” value was found to be 0.0001236 h⁻¹. In data set [2] (20 mg/kg b.w. oral), the highest concentration (Cmax) is 119 µg/mL, the MRT is 2.98 h, the AUC(0-t) is 499 µg·h/mL and the “Elimination Rate” value was found to be 0.0006846 h⁻¹. In data set [2] (40 mg/kg b.w. oral), the Cmax is 125 µg/mL, the mean residence time MRT is 3.04 h, the AUC(0-t) is 539 µg·h/mL and the “Elimination Rate” value is 0.0002917 h⁻¹. Moreover, in data set [2] (oral), the bioavailability entry was “moderate”.

With `C[C@H](CS)C(=O)N1CCC[C@H]1C(=O)O` [Captopril, captopril, reference compound], in data set [1] (5 mg/kg), the “Diastolic BP” value was found to be 117.8 ± 11.19, the “Heart Rate” value worked out at 507.11 ± 6.13 Beats/min, the MABP is recorded as 126.19 ± 11.10 mmHg and the “Systolic BP” value is on record as 142.99 ± 10.88. Moreover, in data set [1] (10 mg/kg), the “Diastolic BP” value is on record as 98.66 ± 10.18, the “Heart Rate” value is reported as 421.78 ± 12.0 Beats/min, the MABP was found to be 112.6 ± 5.17 mmHg and the “Systolic BP” value was determined as 136.77 ± 6.13.
